Results on 25 compounds are retold here after patent US9006235B2, “Inhibitors of human immunodeficiency virus replication” (priority 2012, dated 2015).

The subject of this assay is recombinant NL-Rluc virus. Put plainly: Inhibition of HIV replication (NL-Rluc virus, luciferase readout in MT-2 cells). Format: cell-based. Conditions: Human immunodeficiency virus 1, MT2, 120 h.

Like-named read-outs stand apart in the source and are kept apart here.

`Cc1nc2cc(NC(=O)c3cc(C(C)(C)C)nn3C)nn2c(-c2cc(F)c3c(c2C)CCCO3)c1[C@H](OC(C)(C)C)C(=O)O` [Example 11, (2S)-2-tert-butoxy-2-(2-(3-tert-butyl-1-methyl-1H-pyrazole-5-carboxamido)-7-(8-fluoro-5-methylchroman-6-yl)-5-methylpyrazolo[1,5-a]pyrimidin-6-yl)acetic acid]: the EC50 (read-out: Activity) was less than 100 nM. For `Cc1nc2cc(NC(=O)Cc3ccc(F)cc3)nn2c(-c2cc(F)c3c(c2C)CCCO3)c1[C@H](OC(C)(C)C)C(=O)O` [Example 3, (2S)-2-tert-butoxy-2-(7-(8-fluoro-5-methylchroman-6-yl)-2-(2-(4-fluorophenyl)acetamido)-5-methylpyrazolo[1,5-a]pyrimidin-6-yl)acetic acid], the EC50 was determined as 80 nM. For the same compound, under “read-out: Activity”, the EC50 is less than 100 nM.

On to `Cc1nc2cc(NC3CCCC3)nn2c(-c2cc(F)c3c(c2C)CCCO3)c1[C@H](OC(C)(C)C)C(=O)O` [Example 49, (2S)-2-(tert-butoxy)-2-(2-(cyclopentylamino)-7-(8-fluoro-5-methylchroman-6-yl)-5-methylpyrazolo[1,5-a]pyrimidin-6-yl)acetic acid], for which, for the setting “read-out: Activity”, the EC50 lay within 100 to 1000 nM. For the compound `Cc1nc2cc(NC(=O)CCCCCC(C)(C)C)nn2c(-c2cc(F)c3c(c2C)CCCO3)c1[C@H](OC(C)(C)C)C(=O)O` [Example 20, (2S)-2-tert-butoxy-2-(2-(7,7-dimethyloctanamido)-7-(8-fluoro-5-methylchroman-6-yl)-5-methylpyrazolo[1,5-a]pyrimidin-6-yl)acetic acid], under “read-out: Activity”, the EC50 was less than 100 nM.

Turning to `Cc1nc2cc(NCCc3ccccc3)nn2c(-c2cc(F)c3c(c2C)CCCO3)c1[C@H](OC(C)(C)C)C(=O)O` [Example 39, (2S)-2-(tert-butoxy)-2-(7-(8-fluoro-5-methylchroman-6-yl)-5-methyl-2-(phenethylamino)pyrazolo[1,5-a]pyrimidin-6-yl)acetic acid], the EC50 (read-out: Activity) is less than 100 nM. As to `Cc1ccc(OC(=O)Nc2cc3nc(C)c([C@H](OC(C)(C)C)C(=O)O)c(-c4cc(F)c5c(c4C)CCCO5)n3n2)cc1` [Example 32, (2S)-2-(tert-butoxy)-2-(7-(8-fluoro-5-methylchroman-6-yl)-5-methyl-2-(((p-tolyloxy)carbonyl)amino)pyrazolo[1,5-a]pyrimidin-6-yl)acetic acid], the EC50 runs as follows: (MT-2 cells infected with NL-RLuc virus, 5 days of incubation, luciferase, serum condition not specified, read-out: Activity) more than 1000 nM; (MT-2 cells infected with NL-RLuc virus, 5 days of incubation, luciferase, serum condition not specified, read-out: EC50) 6410 nM. For the compound `Cc1nc2cc(NC(=O)Cc3ccc(Cl)c(Cl)c3)nn2c(-c2cc(F)c3c(c2C)CCCO3)c1[C@H](OC(C)(C)C)C(=O)O` [Example 26, (2S)-2-tert-butoxy-2-(2-(2-(3,4-dichlorophenyl)acetamido)-7-(8-fluoro-5-methylchroman-6-yl)-5-methylpyrazolo[1,5-a]pyrimidin-6-yl)acetic acid], the EC50 (read-out: Activity) is less than 100 nM.

`Cc1nc2cc(N3CCCCC3)nn2c(-c2cc(F)c3c(c2C)CCCO3)c1[C@H](OC(C)(C)C)C(=O)O` [Example 50, (2S)-2-(tert-butoxy)-2-(7-(8-fluoro-5-methylchroman-6-yl)-5-methyl-2-(piperidin-1-yl)pyrazolo[1,5-a]pyrimidin-6-yl)acetic acid]: the EC50 was found to be 60 nM. For the same compound, the EC50 (read-out: Activity) was less than 100 nM.

Regarding `Cc1nc2cc(N)nn2c(-c2cc(F)c3c(c2C)CCCO3)c1[C@H](OC(C)(C)C)C(=O)O` [Example 1, (2S)-2-(2-amino-7-(8-fluoro-5-methylchroman-6-yl)-5-methylpyrazolo[1,5-a]pyrimidin-6-yl)-2-tert-butoxyacetic acid], the EC50 turned out to be 2480 nM. Also, under “read-out: Activity”, the EC50 is more than 1000 nM.

In the case of `Cc1nc2cc(NC(=O)C(=O)c3c[nH]c4ccccc34)nn2c(-c2cc(F)c3c(c2C)CCCO3)c1[C@H](OC(C)(C)C)C(=O)O` [Example 31, (2S)-2-(2-(2-(1H-indol-3-yl)-2-oxoacetamido)-7-(8-fluoro-5-methylchroman-6-yl)-5-methylpyrazolo[1,5-a]pyrimidin-6-yl)-2-tert-butoxyacetic acid], the EC50 (read-out: Activity) was less than 100 nM. The same measure, in the same setting: as for `Cc1nc2cc(NC(=O)COCc3ccccc3)nn2c(-c2cc(F)c3c(c2C)CCCO3)c1[C@H](OC(C)(C)C)C(=O)O` [Example 9, (2S)-2-(2-(2-(benzyloxy)acetamido)-7-(8-fluoro-5-methylchroman-6-yl)-5-methylpyrazolo[1,5-a]pyrimidin-6-yl)-2-tert-butoxyacetic acid], the figure is less than 100 nM.

Take `Cc1nc2cc(NC(=O)CCCOc3ccccc3)nn2c(-c2cc(F)c3c(c2C)CCCO3)c1[C@H](OC(C)(C)C)C(=O)O` [Example 27, (2S)-2-tert-butoxy-2-(7-(8-fluoro-5-methylchroman-6-yl)-5-methyl-2-(4-phenoxybutanamido)pyrazolo[1,5-a]pyrimidin-6-yl)acetic acid]: the EC50 (read-out: Activity) is 100 to 1000 nM. `COc1ccc(CCC(=O)Nc2cc3nc(C)c([C@H](OC(C)(C)C)C(=O)O)c(-c4cc(F)c5c(c4C)CCCO5)n3n2)cc1` [Example 23, (2S)-2-tert-butoxy-2-(7-(8-fluoro-5-methylchroman-6-yl)-2-(3-(4-methoxyphenyl)propanamido)-5-methylpyrazolo[1,5-a]pyrimidin-6-yl)acetic acid]: the EC50 was determined as 170 nM. Further, where the note is “read-out: Activity”, the EC50 lay within 100 to 1000 nM. In the case of `Cc1nc2cc(N(CCC(C)C)CCC(C)C)nn2c(-c2cc(F)c3c(c2C)CCCO3)c1[C@H](OC(C)(C)C)C(=O)O` [Example 44, (2S)-2-(tert-butoxy)-2-(2-(diisopentylamino)-7-(8-fluoro-5-methylchroman-6-yl)-5-methylpyrazolo[1,5-a]pyrimidin-6-yl)acetic acid], the EC50 came out at 1600 nM. For the same compound, the EC50 (read-out: Activity) is more than 1000 nM. On to `Cc1nc2cc(NC(=O)COC3C[C@@H](C)CC[C@@H]3C(C)C)nn2c(-c2cc(F)c3c(c2C)CCCO3)c1[C@H](OC(C)(C)C)C(=O)O` (stereo partly drawn) [Example 13, (2S)-2-tert-butoxy-2-(7-(8-fluoro-5-methylchroman-6-yl)-2-(2-((2R,5S)-2-isopropyl-5-methylcyclohexyloxy)acetamido)-5-methylpyrazolo[1,5-a]pyrimidin-6-yl)acetic acid], for which the EC50 (read-out: Activity) was less than 100 nM. As to `Cc1nc2cc(NC(=O)CC3CCCC3)nn2c(-c2cc(F)c3c(c2C)CCCO3)c1[C@H](OC(C)(C)C)C(=O)O` [Example 21, (2S)-2-tert-butoxy-2-(2-(2-cyclopentylacetamido)-7-(8-fluoro-5-methylchroman-6-yl)-5-methylpyrazolo[1,5-a]pyrimidin-6-yl)acetic acid], where the note is “read-out: Activity”, the EC50 is less than 100 nM. Consider `CCCCOC(=O)Nc1cc2nc(C)c([C@H](OC(C)(C)C)C(=O)O)c(-c3cc(F)c4c(c3C)CCCO4)n2n1` [Example 34, (2S)-2-(tert-butoxy)-2-(2-((butoxycarbonyl)amino)-7-(8-fluoro-5-methylchroman-6-yl)-5-methylpyrazolo[1,5-a]pyrimidin-6-yl)acetic acid], for which, where the note is “read-out: Activity”, the EC50 is less than 100 nM. For the compound `Cc1nc2cc(NCCC(C)(C)C)nn2c(-c2cc(F)c3c(c2C)CCCO3)c1[C@H](OC(C)(C)C)C(=O)O` [Example 45, (2S)-2-(tert-butoxy)-2-(2-((3,3-dimethylbutyl)amino)-7-(8-fluoro-5-methylchroman-6-yl)-5-methylpyrazolo[1,5-a]pyrimidin-6-yl)acetic acid], for the setting “read-out: Activity”, the EC50 was less than 100 nM. Regarding `Cc1nc2cc(NC(=O)CCc3ccccc3)nn2c(-c2cc(F)c3c(c2C)CCCO3)c1[C@H](OC(C)(C)C)C(=O)O` [Example 16, (2S)-2-tert-butoxy-2-(7-(8-fluoro-5-methylchroman-6-yl)-5-methyl-2-(3-phenylpropanamido)pyrazolo[1,5-a]pyrimidin-6-yl)acetic acid], under “read-out: Activity”, the EC50 is 100 to 1000 nM. Turning to `Cc1nc2cc(NCCC(F)(F)F)nn2c(-c2cc(F)c3c(c2C)CCCO3)c1[C@H](OC(C)(C)C)C(=O)O` [Example 48, (2S)-2-(tert-butoxy)-2-(7-(8-fluoro-5-methylchroman-6-yl)-5-methyl-2-((3,3,3-trifluoropropyl)amino)pyrazolo[1,5-a]pyrimidin-6-yl)acetic acid], the EC50 stood at 340 nM. In addition, the EC50 (read-out: Activity) lay within 100 to 1000 nM. For the compound `Cc1nc2cc(NCCC(C)CC(C)(C)C)nn2c(-c2cc(F)c3c(c2C)CCCO3)c1[C@H](OC(C)(C)C)C(=O)O` (stereo partly drawn) [Example 47, (2S)-2-(tert-butoxy)-2-(7-(8-fluoro-5-methylchroman-6-yl)-5-methyl-2-((3,5,5-trimethylhexyl)amino)pyrazolo[1,5-a]pyrimidin-6-yl)acetic acid], under “read-out: Activity”, the EC50 was less than 100 nM. Still for that read-out and setting: as for `Cc1ccc(NC(=O)Nc2cc3nc(C)c([C@H](OC(C)(C)C)C(=O)O)c(-c4cc(F)c5c(c4C)CCCO5)n3n2)cc1` [Example 37, (2S)-2-(tert-butoxy)-2-(7-(8-fluoro-5-methylchroman-6-yl)-5-methyl-2-(3-(p-tolyl)ureido)pyrazolo[1,5-a]pyrimidin-6-yl)acetic acid], the figure is less than 100 nM. As for `COc1ccc(C(=O)Nc2cc3nc(C)c([C@H](OC(C)(C)C)C(=O)O)c(-c4cc(F)c5c(c4C)CCCO5)n3n2)cc1OC` [Example 15, (2S)-2-tert-butoxy-2-(2-(3,4-dimethoxybenzamido)-7-(8-fluoro-5-methylchroman-6-yl)-5-methylpyrazolo[1,5-a]pyrimidin-6-yl)acetic acid], the EC50 came out at 260 nM. Under “read-out: Activity”, the EC50 lay within 100 to 1000 nM.

As for `COc1cc(C(=O)Nc2cc3nc(C)c([C@H](OC(C)(C)C)C(=O)O)c(-c4cc(F)c5c(c4C)CCCO5)n3n2)cc(OC)c1OC` [Example 29, (2S)-2-tert-butoxy-2-(7-(8-fluoro-5-methylchroman-6-yl)-5-methyl-2-(3,4,5-trimethoxybenzamido)pyrazolo[1,5-a]pyrimidin-6-yl)acetic acid], under “read-out: Activity”, the EC50 is 100 to 1000 nM. In the case of `Cc1nc2cc(NC(=O)OCC[Si](C)(C)C)nn2c(-c2cc(F)c3c(c2C)CCCO3)c1[C@H](OC(C)(C)C)C(=O)O` [Example 36, (2S)-2-(tert-butoxy)-2-(7-(8-fluoro-5-methylchroman-6-yl)-5-methyl-2-(((2-(trimethylsilyl)ethoxy)carbonyl)amino)pyrazolo[1,5-a]pyrimidin-6-yl)acetic acid], the EC50 (read-out: Activity) was less than 100 nM.
